Earlier results as cited in patent US20040058943A1, “Medicinal composition for treatment of chronic cardiac failure” (priority 2001, published 2004).
Like-named read-outs stand apart in the source and are kept apart here.

Experiments:
[1] = system: model rats of heart failure; details: 10-week oral administration
[2] = system: model rats of heart failure after myocardial infarction; details: for effect on mortality: 9-months long-term oral administration

COc1cc(OC)nc(O[C@H](C(=O)O)C(OC)(c2ccccc2)c2ccccc2)n1 [darusentan]
ameliorating the left ventricular end-diastolic pressure (LVEDP) [1]: effective
cardiac hypertrophy [1]: ineffective
maximum value of the first order differentiation of the left ventricular systolic pressure (LVdP/dtmax) [1]: ineffective

COc1ccccc1Oc1c(NS(=O)(=O)c2ccc(C(C)(C)C)cc2)nc(-c2ncccn2)nc1OCCO [bosentan]
effect on mortality ([2]; dose 30 mg/kg·day): ineffective
effect on mortality ([2]; dose 100 mg/kg·day): significantly reduces the mortality
ameliorating the left ventricular end-diastolic pressure (LVEDP) ([2]; long-term oral administration): effective
maximum value of the first order differentiation of the left ventricular systolic pressure (LVdP/dtmax) ([2]; long-term oral administration): ineffective
